One assay addresses JAK1 (Homo sapiens (Human), UniProt P23458). Briefly: Jak Biochemical HTRF Assay (JAK1). The conditions noted are these: recombinant purified GST-tagged catalytic domain; HTRF; [ATP] 31.8 μM; [E] 1.405 nM. On the technique in general: TR-FRET usually uses a lanthanide donor and a delayed reading to cut background.
The target of a further assay is JAK2 (Homo sapiens (Human), UniProt O60674). Briefly: Jak Biochemical HTRF Assay (JAK2). The conditions noted are these: recombinant purified GST-tagged catalytic domain, [ATP] 8.5 μM, [E] 0.052 nM.
Sequence of JAK2 (O60674 849-1124): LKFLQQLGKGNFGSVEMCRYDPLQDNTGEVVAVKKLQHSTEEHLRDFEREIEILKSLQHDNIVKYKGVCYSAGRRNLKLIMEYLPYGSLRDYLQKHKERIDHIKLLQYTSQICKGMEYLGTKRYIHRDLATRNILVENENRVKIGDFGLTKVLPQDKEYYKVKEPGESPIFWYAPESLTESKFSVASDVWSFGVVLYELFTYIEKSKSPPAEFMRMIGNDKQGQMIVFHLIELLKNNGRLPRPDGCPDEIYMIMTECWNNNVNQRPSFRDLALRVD

From patent US10072025B2, “Ethyl N-boc piperidinyl pyrazolo pyridones as Janus kinase inhibitors” (Merck Sharp & Dohme Corp., priority 2014, dated 2018) come the findings set out here.

Sequence of JAK1 (P23458 875-1153): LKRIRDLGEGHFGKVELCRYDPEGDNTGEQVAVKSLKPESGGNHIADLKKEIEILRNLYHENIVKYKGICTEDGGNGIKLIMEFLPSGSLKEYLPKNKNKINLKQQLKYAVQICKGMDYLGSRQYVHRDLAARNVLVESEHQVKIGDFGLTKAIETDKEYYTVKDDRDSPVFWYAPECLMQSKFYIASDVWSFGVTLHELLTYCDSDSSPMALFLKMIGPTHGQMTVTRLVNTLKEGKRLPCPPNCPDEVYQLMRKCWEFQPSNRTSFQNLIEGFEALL

Take `CCC1(n2nc(Nc3ccc(C(=O)N4CCOC[C@H]4C(C)C)c(C)c3)c3c(=O)[nH]ccc32)CCN(C(=O)OC(C)(C)C)CC1` [Example 3-8, tert-butyl 4-ethyl-4-{3-[(3-methyl-4-{[(3R)-3-(1-methylethyl)morpholin-4-yl]carbonyl}phenyl)amino]-4-oxo-4,5-dihydro-1H-pyrazolo[4,3-0]pyridin-1-yl} piperidine-1-carboxylate]: the IC50 (as a rule, the midpoint of a concentration-inhibition curve) on JAK1 worked out at 0.93 nM; at JAK2, 1.01 nM.
As for `CCC1(n2nc(Nc3ccc(C4CCNCC4)cc3)c3c(=O)[nH]ccc32)CCN(C(=O)OC(C)(C)C)CC1` [Example 2-23, tert-butyl 4-ethyl-4-(4-oxo-3-(4-(piperidin-4-yl)phenylamino)-4,5-dihydropyrazolo[4,3-c]pyridin-1-yl) piperidine-1-carboxylate], the IC50 is 1.13 nM at JAK1 and 1.92 nM on JAK2.
